Test: mn = molality of the nth substance listed, in mol/kg
Conditions: 100 kPa, Liquid, Vibrating tube method

O=C(O)[C@@H]1CCCN1 [L-proline] + O
mass density [kg/m3]
Conditions	273.65 K	274.15 K	274.65 K	275.15 K	275.65 K	276.15 K	276.65 K	277.15 K	277.65 K	278.15 K
m1 = 0.0132	1000.34	1000.37	1000.39	1000.4	1000.41	1000.42	1000.43	1000.43	1000.43	1000.42
m1 = 0.0326	1001.02	1001.05	1001.07	1001.08	1001.09	1001.1	1001.11	1001.11	1001.1	1001.09
m1 = 0.0542	1001.77	1001.79	1001.81	1001.82	1001.84	1001.84	1001.84	1001.85	1001.84	1001.83
m1 = 0.0692	1002.29	1002.31	1002.32	1002.34	1002.34	1002.35	1002.35	1002.35	1002.34	1002.33
m1 = 0.0808	1002.69	1002.71	1002.73	1002.74	1002.75	1002.75	1002.75	1002.75	1002.74	1002.73
m1 = 0.1014	1003.41	1003.43	1003.45	1003.46	1003.46	1003.46	1003.46	1003.46	1003.45	1003.43
m1 = 0.1196	1004.09	1004.11	1004.12	1004.13	1004.13	1004.13	1004.13	1004.13	1004.12	1004.1
m1 = 0.1326	1004.5	1004.52	1004.53	1004.54	1004.54	1004.54	1004.54	1004.54	1004.52	1004.51
m1 = 0.1555	1005.27	1005.29	1005.3	1005.3	1005.3	1005.3	1005.3	1005.29	1005.28	1005.26
m1 = 0.1568	1005.41	1005.42	1005.43	1005.44	1005.44	1005.44	1005.43	1005.43	1005.41	1005.39
m1 = 0.1835	1006.23	1006.25	1006.25	1006.26	1006.26	1006.25	1006.25	1006.24	1006.22	1006.2
m1 = 0.2076	1007.04	1007.05	1007.05	1007.05	1007.05	1007.04	1007.04	1007.03	1007.01	1006.99
m1 = 0.2212	1007.72	1007.73	1007.73	1007.73	1007.72	1007.72	1007.71	1007.7	1007.68	1007.66

From the NIST ThermoML archive (doi:10.1021/acs.jced.9b00752)
